Data on 49 compounds can be found in ChEMBL document CHEMBL5308504, “Tm Shift (DSF) assay results for EUbOPEN Chemogenomics Library” (2023).

In assay [1] the target is T1, Peregrin (Homo sapiens) (UniProt P55201).
T1 sequence (whole entry): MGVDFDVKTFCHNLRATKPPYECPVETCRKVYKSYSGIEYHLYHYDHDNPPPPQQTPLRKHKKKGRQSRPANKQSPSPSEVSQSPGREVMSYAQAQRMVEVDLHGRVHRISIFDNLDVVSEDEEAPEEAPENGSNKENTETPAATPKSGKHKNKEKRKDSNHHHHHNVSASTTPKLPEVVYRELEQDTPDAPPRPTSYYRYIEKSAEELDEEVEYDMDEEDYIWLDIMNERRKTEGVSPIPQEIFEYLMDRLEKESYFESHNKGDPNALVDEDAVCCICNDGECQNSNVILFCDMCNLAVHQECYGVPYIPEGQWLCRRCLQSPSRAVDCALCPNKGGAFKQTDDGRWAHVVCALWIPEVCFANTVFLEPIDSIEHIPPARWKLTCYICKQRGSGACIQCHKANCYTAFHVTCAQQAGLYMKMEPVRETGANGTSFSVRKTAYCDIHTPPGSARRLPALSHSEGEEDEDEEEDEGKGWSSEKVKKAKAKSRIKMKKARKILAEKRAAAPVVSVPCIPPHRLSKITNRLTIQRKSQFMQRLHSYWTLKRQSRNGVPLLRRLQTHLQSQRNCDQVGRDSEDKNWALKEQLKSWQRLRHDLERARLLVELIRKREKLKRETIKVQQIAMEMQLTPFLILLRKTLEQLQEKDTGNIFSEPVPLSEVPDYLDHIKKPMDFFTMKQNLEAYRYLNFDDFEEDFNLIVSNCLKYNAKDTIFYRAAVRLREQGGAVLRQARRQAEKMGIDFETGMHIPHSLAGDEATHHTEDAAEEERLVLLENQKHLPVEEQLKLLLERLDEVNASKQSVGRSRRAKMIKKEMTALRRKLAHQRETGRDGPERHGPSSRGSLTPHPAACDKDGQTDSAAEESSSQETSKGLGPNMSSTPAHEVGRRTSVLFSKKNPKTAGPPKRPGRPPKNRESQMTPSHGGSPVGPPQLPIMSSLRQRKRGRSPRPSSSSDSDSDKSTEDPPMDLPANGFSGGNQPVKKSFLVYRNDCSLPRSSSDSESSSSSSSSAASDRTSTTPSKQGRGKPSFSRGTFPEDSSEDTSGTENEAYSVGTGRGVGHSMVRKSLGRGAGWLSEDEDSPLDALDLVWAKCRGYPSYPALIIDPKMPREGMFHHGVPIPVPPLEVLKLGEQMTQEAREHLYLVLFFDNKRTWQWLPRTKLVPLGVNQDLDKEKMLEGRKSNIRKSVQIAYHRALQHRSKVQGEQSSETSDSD
The conditions noted are these: Compound concentration 20.0 uM, Protein concentration 2.0 uM, Result type QC Liability.

Assay [2] addresses Fibroblast growth factor receptor 3 (Homo sapiens) (UniProt P22607). The conditions noted are these: Compound concentration 20.0 uM, Protein concentration 2.0 uM, Result type QC Liability.
Description: Thermal Shift Assay. Domain: start/stop: P449-E759

Fibroblast growth factor receptor 3 (Homo sapiens), sequence (P22607 23-806 limits assumed): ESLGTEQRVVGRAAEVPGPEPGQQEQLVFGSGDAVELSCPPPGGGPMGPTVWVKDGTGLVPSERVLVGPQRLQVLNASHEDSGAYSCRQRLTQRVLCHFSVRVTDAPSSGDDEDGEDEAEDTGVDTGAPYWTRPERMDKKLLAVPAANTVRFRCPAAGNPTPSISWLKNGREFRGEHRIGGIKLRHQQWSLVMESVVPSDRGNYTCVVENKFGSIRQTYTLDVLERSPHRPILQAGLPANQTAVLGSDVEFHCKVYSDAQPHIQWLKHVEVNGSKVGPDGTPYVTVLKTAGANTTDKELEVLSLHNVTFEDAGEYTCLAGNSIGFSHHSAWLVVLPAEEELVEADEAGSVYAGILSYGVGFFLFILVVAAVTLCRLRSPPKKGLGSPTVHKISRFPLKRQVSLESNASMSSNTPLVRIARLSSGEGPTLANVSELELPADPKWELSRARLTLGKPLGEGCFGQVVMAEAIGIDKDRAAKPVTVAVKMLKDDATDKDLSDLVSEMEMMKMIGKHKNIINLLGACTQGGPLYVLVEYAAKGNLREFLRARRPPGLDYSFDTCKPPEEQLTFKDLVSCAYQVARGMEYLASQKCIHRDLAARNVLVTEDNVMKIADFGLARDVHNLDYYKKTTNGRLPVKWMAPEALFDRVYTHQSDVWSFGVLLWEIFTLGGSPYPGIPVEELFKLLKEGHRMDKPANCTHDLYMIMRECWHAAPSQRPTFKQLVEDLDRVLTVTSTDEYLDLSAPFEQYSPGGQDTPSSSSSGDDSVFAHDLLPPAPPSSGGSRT

Take `COc1cc(N[C@@H]2CCCC[C@]2(O)C(F)(F)F)ccc1F`: the ΔTm (as a rule, the change in melting temperature against a reference sample) in assay [1] was -1.55 °C; in assay [2], 0.65 °C.
`CN[C@@H](C)C(=O)N[C@H]1CN(C(=O)CC(C)C)CC[C@H]2CC[C@@H](C(=O)NC(c3ccccc3)c3ccccc3)N2C1=O`: the ΔTm in assay [1] was -1.53 °C; in assay [2] it was 0.83 °C.
`O=C(Nc1ccnc(NC(=O)C2CC2)c1)c1c(Cl)cccc1Cl`: the thermal shift (ΔTm) in assay [1] is -1.28 °C; in assay [2], 3.21 °C.
For `CNc1[nH]c(Nc2ccc(C(=O)N3CCOCC3)cc2OC)nc2ncc(Cl)c1-2`, in that order: -1.81 °C and 0.62 °C.
On to `Clc1ccccc1C(c1ccccc1)(c1ccccc1)n1ccnc1`, for which the results for the shift in melting temperature (ΔTm) in assay [1] and in assay [2] were -5.05 °C and 0.47 °C, respectively.
As for `CN1CCN(C(=O)Cc2ccc(N/C(=C3\C(=O)Nc4cc(Cl)ccc43)c3ccccc3)cc2)CC1`, the ΔTm is -2.46 °C in assay [1] and 5.68 °C in assay [2].
For the compound `Cc1nn(-c2nc3ccc(Cl)c(Cl)c3[nH]2)c(O)c1C1OC(=O)c2ccccc21` (stereo not drawn), the ΔTm in assay [1] is -3.79 °C; in assay [2], 0.7 °C.
Take `Cc1nc2ccccc2c(-c2ccc3c4c(ccnc24)CCO3)c1[C@H](OC(C)(C)C)C(=O)O`: the ΔTm is -2.17 °C in assay [1] and 0.36 °C in assay [2].
The corresponding values for `COc1ccc(S(=O)(=O)N2CCOCC2)cc1Nc1ccc2c(n1)N(C1CCN(C)CC1)[C@H](C)C(=O)N2C` are 1.52 °C and 0.38 °C.
With `CCCCc1oc2ccccc2c1C(=O)c1cc(I)c(OCCN(CC)CC)c(I)c1`, the ΔTm in assay [1] is -1.31 °C; in assay [2], 0.79 °C.
For `Cc1nc2cccnc2n2c(-c3cc([C@@]4(O)CCCOC4)ccc3Cl)nnc12`, in that order: -2.38 °C and 0.59 °C.
As to `Cc1cn(CCN2CCN(c3ccccc3-c3cc(C#N)cc(C(=O)NCCCN4CCCC4)c3)CC2)c2ccccc12`, the results for the ΔTm in assay [1] and in assay [2] were 0.42 °C and -1.2 °C, respectively.
In the case of `COc1cc(C(=O)NC2CCN(C)CC2)ccc1Nc1ncc2c(n1)N(C1CCCC1)CC(F)(F)C(=O)N2C`, the ΔTm in assay [1] came to 1.14 °C; in assay [2], 0.42 °C.
The corresponding values for `CN1CCN(C(=O)c2ccc3cc2OCCOCCNc2ccn4ncc-3c4n2)CC1` are -1.15 °C and 2.23 °C.
With `Cc1nccn1-c1ccc(Sc2cccc(C3(C(N)=O)CCOCC3)c2)cc1`, the thermal shift (ΔTm) in assay [1] is -1.72 °C; in assay [2], 0.44 °C.
As to `CS(=O)(=O)NCC[C@H](NC(=O)c1cncc2c1cnn2-c1ccc(F)cc1)c1ccnc(S(C)(=O)=O)c1`, the ΔTm is -1.91 °C in assay [1] and 0.62 °C in assay [2].
For `C/C(=C\C(=O)Nc1ccccc1C(=O)O)c1ccc2ccccc2c1`, in that order: -1.56 °C and 1.14 °C.
As to `CS(=O)(=O)NC(=O)CCC/C=C\C[C@H]1C(=O)C[C@@H](O)[C@@H]1/C=C/[C@@H](O)COc1ccccc1`, the figures for the shift in melting temperature (ΔTm) in assay [1] and in assay [2] were -1.73 °C and 0.49 °C, respectively.
Regarding `COc1ncc(-c2cc(-c3ncc(CN4C[C@@H](C)O[C@@H](C)C4)o3)c3cn[nH]c3c2)cc1NS(C)(=O)=O`, the results for the thermal shift (ΔTm) in assay [1] and in assay [2] were -0.2 °C and 1.45 °C, respectively.
The corresponding values for `COc1cc(C(=O)NCCOCCOCCOCC(=O)N[C@H](C(=O)N2C[C@H](O)C[C@H]2C(=O)NCc2ccc(-c3scnc3C)cc2)C(C)(C)C)ccc1Nc1ncc(C(F)(F)F)c(Oc2cccc3c2C(=O)CC3)n1` are -0.82 °C and 1.52 °C.
For `COc1cc(CN(CCN)C(=O)N[C@@H](C)c2ccccc2)ccc1OCc1ccccc1`, in that order: -2.05 °C and 0.47 °C.
The corresponding values for `Cc1ccc(-n2nc(C(C)(C)C)cc2NC(=O)Nc2ccccc2F)cc1` are -0.3 °C and 2.28 °C.
Take `C=CC[C@@H]1/C=C(\C)C[C@H](C)C[C@H](OC)[C@H]2O[C@@](O)(C(=O)C(=O)N3CCCC[C@H]3C(=O)O[C@H](/C(C)=C/[C@@H]3CC[C@@H](O)[C@H](OC)C3)[C@H](C)[C@@H](O)CC1=O)[C@H](C)C[C@@H]2OC`: the figures for the ΔTm in assay [1] and in assay [2] were -3.28 °C and 0.4 °C, respectively.
For the compound `C=CC(=O)Nc1cccc(C(=O)Nc2ccc(Nc3cc(-c4c(-c5ccc(F)cc5)nc(SC)n4C)ccn3)cc2)c1`, the ΔTm in assay [1] was 0.18 °C; in assay [2], -0.43 °C.
The corresponding values for `COc1ccc(N(C(=O)Nc2c(C)cccc2C)c2cc(Nc3ccc(N4CCN(C)CC4)cc3)ncn2)c(OC)c1` are -3.64 °C and 8.93 °C.
For the compound `Clc1ccc(-c2nc3sccn3c2/C=N/OCc2ccc(Cl)c(Cl)c2)cc1`, the ΔTm in assay [1] was -0.92 °C; in assay [2], 0.55 °C.
On to `O=C(Cc1ccccc1)Nc1nnc(N2C[C@H]3C[C@@H]2CN3c2cccnn2)s1`, for which the figures for the shift in melting temperature (ΔTm) in assay [1] and in assay [2] were -0.88 °C and 0.46 °C, respectively.
For `Cc1cc2c(ncn2C2(C)CN(C(=O)c3ccn(CC4CCN([C@H]5C=CCCCC5)CC4)c3)C2)c(N)n1`, in that order: -0.47 °C and 0.4 °C.
The corresponding values for `CNc1nc(-c2cc(C(=O)N3CCN(Cc4ccc(Cl)cc4)CC3)c(Cl)cn2)cs1` are -1.62 °C and 0.37 °C.
For `CC1CN(CC(=O)N2CC(C)(C)c3nc(CO)c(Cc4ccc(F)cc4)cc32)C(CN2CCOCC2C)CN1` (stereo not drawn), in that order: -1.08 °C and 0.81 °C.
As for `Cc1cc(Cn2c(N3CC4(CNC4)C3)nc3cc(Cl)cc(N4CCN(C)CC4)c32)cc(C)c1F`, the shift in melting temperature (ΔTm) in assay [1] is -2.07 °C; in assay [2] it was 1.32 °C.
`CNC(=O)c1cc(C(=O)N[C@H]2[C@@H]3COC[C@@H]32)cc2c1O[C@H](CF)[C@H]2c1ccccc1`: the results for the thermal shift (ΔTm) in assay [1] and in assay [2] were -0.69 °C and 0.65 °C, respectively.
For `CC(C)(C)c1cc(NC(=O)c2csc(Nc3ccc(Cl)cc3)n2)no1`, in that order: -0.02 °C and 1.46 °C.
`CCC(=O)N[C@@H]1CC[C@H](C(=O)N(C)c2ccc(-c3nc4ccccc4o3)cc2)C1`: the shift in melting temperature (ΔTm) was -1.58 °C in assay [1] and 0.71 °C in assay [2].
As to `Cc1nnc2n1-c1sc3c(c1C(c1ccccc1Cl)=NC2)C[C@H](C(=O)N1CCOCC1)C3`, the results for the ΔTm in assay [1] and in assay [2] were -1.51 °C and 0.59 °C, respectively.
On to `COc1cc(F)ccc1-c1ncnc(Nc2cccc(C[S@](C)(=N)=O)c2)n1`, for which the shift in melting temperature (ΔTm) in assay [1] was -1.17 °C; in assay [2], 1.31 °C.
For the compound `CC(=O)N(CCN(C)C)c1ccc(N/C(=C2\C(=O)Nc3cc(Cl)ccc32)c2ccccc2)cn1`, the values for the shift in melting temperature (ΔTm) in assay [1] and in assay [2] were -1.84 °C and 7.35 °C, respectively.
Regarding `O=C(O)[C@]1(Cc2cccc(Nc3nccs3)n2)CC[C@@H](Oc2cccc(Cl)c2F)CC1`, the thermal shift (ΔTm) was -3.28 °C in assay [1] and 6.09 °C in assay [2].
Regarding `CN1C(=O)Cc2ccc(-c3ccc(C[C@@H](C#N)NC(=O)[C@H]4N[C@@H]5CC[C@H]4C5)c(F)c3)cc21`, the shift in melting temperature (ΔTm) in assay [1] worked out at 0.36 °C; in assay [2], 0.73 °C.
The corresponding values for `COCc1c(-c2cc3cc(C)cc(OC)c3s2)c2c(N)ncnn2c1CN[C@@H]1CCNC1=O` are -2.51 °C and 6.99 °C.
In the case of `CCCN1CCC(C#N)(NC(=O)[C@H](CC(C)(C)C)NC(=O)N2CCOCC2)CC1`, the ΔTm in assay [1] is -2.18 °C; in assay [2], 0.37 °C.
For `C=CC1C[C@]1(NC(=O)[C@@H]1C[C@@H](Oc2cc(-c3csc(NC(=O)C(C)C)n3)nc3c(Br)c(OC)ccc23)CN1C(=O)[C@@H](NC(=O)OC1CCCC1)C(C)(C)C)C(=O)O` (stereo partly drawn), in that order: -2.59 °C and 1.41 °C.
As to `CN[C@@H](C)C(=O)N[C@H](C(=O)N1CCC[C@H]1C(=O)Nc1sc(-c2ncco2)nc1-c1ccccc1)C1CCCCC1`, the thermal shift (ΔTm) in assay [1] was -1.67 °C; in assay [2], 0.43 °C.
For `Cc1cc2ncnn2cc1Nc1ncc2c(n1)n(C1CCOCC1)c(=O)n2C`, in that order: -4.35 °C and 0.53 °C.
For `N#Cc1ccc(C#CC[C@@H](C#N)NC(=O)[C@@H]2CCCCN2)cc1F`, in that order: -2.06 °C and 0.43 °C.
Consider `CNC(=O)c1cc(C(=O)NC2CC2)cn(Cc2ccccc2)c1=O`, for which the thermal shift (ΔTm) in assay [1] is -0.87 °C; in assay [2] it was 0.5 °C.
As for `CC1(C)Oc2ncnc(N)c2N=C1c1ccc([C@H]2CC[C@H](CC(=O)O)CC2)cc1`, the shift in melting temperature (ΔTm) in assay [1] was -2.72 °C; in assay [2] it was 0.43 °C.
For the compound `O=C(Nc1ccccc1C(=O)O)c1cc(S(=O)(=O)c2ccccc2)ccc1Cl`, the ΔTm in assay [1] is -3.6 °C; in assay [2], 0.83 °C.
For `CCO[C@@H](Cc1ccc(OCCc2ccc(OS(C)(=O)=O)cc2)cc1)C(=O)O`, in that order: -1.83 °C and 0.52 °C.
